Experimental data published in patent US7192906B2, “Substituted pyrazole derivatives, production process thereof, and herbicide compositions containing the derivatives” (SDS Biotech K.K., priority 2001, dated 2007).

Columns and labels:
Assay type in all cases: in vivo
[1] = system: Chenopodium album; test: Test Example 1 upland field foliage treatment; conditions: Table 4, upland field foliage treatment, index 0-5
How it was run: (§1)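 Post-emergence foliar spray, 1 kg a.i./ha, wettable powder diluted in water, applied 14 d after sowing in upland soil. Rating 21 d post-application, 0–5 scale: 5 ≥90%, 4 70–<90%, 3 50–<70%, 2 30–<50%, 1 10–<30%, 0 <10% effect or injury.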

[2] = system: Digitaria adscendens; test: Test Example 1 upland field foliage treatment; conditions: Table 4, upland field foliage treatment, index 0-5
How it was run: as §1

[3] = system: Setaria viridis; test: Test Example 1 upland field foliage treatment; conditions: Table 4, upland field foliage treatment, index 0-5
How it was run: as §1

[4] = system: Stellaria media; test: Test Example 1 upland field foliage treatment; conditions: Table 4, upland field foliage treatment, index 0-5
How it was run: as §1

[5] = system: soybean (Glycine max); test: Test Example 1 upland field foliage treatment, crop phytotoxicity; conditions: Table 4, upland field foliage treatment, index 0-5
How it was run: as §1

[6] = system: wheat (Triticum aestivum); test: as above; conditions: Table 4, upland field foliage treatment, index 0-5
How it was run: as §1

[7] = system: Chenopodium album; test: Test Example 2 upland soil treatment; conditions: Table 5, upland soil treatment, index 0-5
How it was run: (§2)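 Seeds are sown into upland soil and covered by roughly 1 cm of soil, then the compound, formulated as a wettable powder and diluted with water, is applied uniformly to the soil surface the following day at 1 kg active ingredient per hectare. Herbicidal effect or phytotoxicity is graded 0 to 5 after 21 days.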

[8] = system: Digitaria adscendens; test: Test Example 2 upland soil treatment; conditions: Table 5, upland soil treatment, index 0-5
How it was run: as §2

[9] = system: Setaria viridis; test: Test Example 2 upland soil treatment; conditions: Table 5, upland soil treatment, index 0-5
How it was run: as §2

[10] = system: Stellaria media; test: Test Example 2 upland soil treatment; conditions: Table 5, upland soil treatment, index 0-5
How it was run: as §2

[11] = system: soybean (Glycine max); test: Test Example 2 upland soil treatment, crop phytotoxicity; conditions: Table 5, upland soil treatment, index 0-5
How it was run: as §2

[12] = system: wheat (Triticum aestivum); test: as above; conditions: Table 5, upland soil treatment, index 0-5
How it was run: as §2

[13] = system: Ammannia multiflora; test: Test Example 3 paddy field treatment; conditions: paddy field treatment, wettable powder, active ingredient 1 kg per hectare, 21st day after the dropping, index 0-5
How it was run: (§3)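 Scoring used a 0–5 scale of herbicidal effect or phytotoxicity, from <10% to ≥90%, taken 21 days after treatment. Treatment was 1 kg a.i./ha as diluted wettable powder dripped onto 4 cm-deep flooded pots sown with the weeds, 10 days after transplanting two-leaf Koshihikari rice.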

[14] = system: Echinochloa crusgalli; test: Test Example 3 paddy field treatment; conditions: paddy field treatment, wettable powder, active ingredient 1 kg per hectare, 21st day after the dropping, index 0-5
How it was run: as §3

[15] = system: Monochoria vaginalis; test: Test Example 3 paddy field treatment; conditions: paddy field treatment, wettable powder, active ingredient 1 kg per hectare, 21st day after the dropping, index 0-5
How it was run: as §3

[16] = system: Scirpus juncoides; test: Test Example 3 paddy field treatment; conditions: paddy field treatment, wettable powder, active ingredient 1 kg per hectare, 21st day after the dropping, index 0-5
How it was run: as §3

[17] = system: Rice (Oryza sativa); test: Test Example 3 paddy field treatment, crop phytotoxicity; conditions: paddy field treatment, transplanted rice Koshihikari, wettable powder, active ingredient 1 kg per hectare, 21st day after the dropping, index 0-5
How it was run: as §3

SMILES	Herbicidal activity CA: Chenopodium album [1]	Herbicidal activity DA: Digitaria adscendens [2]	Herbicidal activity SV: Setaria viridis [3]	Herbicidal activity SM: Stellaria media [4]	Herbicidal activity (phytotoxicity) GM: Soybean (Glycine max) [5]	Herbicidal activity (phytotoxicity) TA: Wheat (Triticum aestivum) [6]	Herbicidal activity CA: Chenopodium album [7]	Herbicidal activity DA: Digitaria adscendens [8]	Herbicidal activity SV: Setaria viridis [9]	Herbicidal activity SM: Stellaria media [10]	Herbicidal activity (phytotoxicity) GM: Soybean (Glycine max) [11]	Herbicidal activity (phytotoxicity) TA: Wheat (Triticum aestivum) [12]	Herbicidal activity AM [13]	Herbicidal activity EC [14]	Herbicidal activity MV [15]	Herbicidal activity SJ [16]	Herbicidal activity OS (phytotoxicity to rice) [17]
CON=C(Cn1cc(C)c(-c2ccccc2)n1)C(=O)NC(C)C [Compound 20]	5 (herbicidal effect of not less than 90%, or phytotoxicity of 90% or more)	3 (herbicidal effect of not less than 50% and less than 70%, or phytotoxicity of 50% or more and less than 70%)	2 (herbicidal effect of not less than 30% and less than 50%, or phytotoxicity of 30% or more and less than 50%)	5 (herbicidal effect of not less than 90%, or phytotoxicity of 90% or more)	0 (herbicidal effect of not less than 0% and less than 10%, or phytotoxicity of 0% or more and less than 10%)	0 (herbicidal effect of not less than 0% and less than 10%, or phytotoxicity of 0% or more and less than 10%)	3 (herbicidal effect of not less than 50% and less than 70%, or phytotoxicity of 50% or more and less than 70%)	4 (herbicidal effect of not less than 70% and less than 90%, or phytotoxicity of 70% or more and less than 90%)	3 (herbicidal effect of not less than 50% and less than 70%, or phytotoxicity of 50% or more and less than 70%)	4 (herbicidal effect of not less than 70% and less than 90%, or phytotoxicity of 70% or more and less than 90%)	0 (herbicidal effect of not less than 0% and less than 10%, or phytotoxicity of 0% or more and less than 10%)	0 (herbicidal effect of not less than 0% and less than 10%, or phytotoxicity of 0% or more and less than 10%)	4 (herbicidal effect of not less than 70% and less than 90%, or phytotoxicity of 70% or more and less than 90%)	5 (herbicidal effect of not less than 90%, or phytotoxicity of 90% or more)	5 (herbicidal effect of not less than 90%, or phytotoxicity of 90% or more)	4 (herbicidal effect of not less than 70% and less than 90%, or phytotoxicity of 70% or more and less than 90%)	0 (herbicidal effect of not less than 0% and less than 10%, or phytotoxicity of 0% or more and less than 10%)
CON=C(Cn1cc(C)c(-c2ccccc2)n1)C(=O)NC1CC1 [Compound 21, 2-methoxyimino-3-(phenyl-4-methyl-pyrazole)-1-yl-propanoic acid-N-cyclopropylamide]	5 (herbicidal effect of not less than 90%, or phytotoxicity of 90% or more)	5 (herbicidal effect of not less than 90%, or phytotoxicity of 90% or more)	5 (herbicidal effect of not less than 90%, or phytotoxicity of 90% or more)	5 (herbicidal effect of not less than 90%, or phytotoxicity of 90% or more)	0 (herbicidal effect of not less than 0% and less than 10%, or phytotoxicity of 0% or more and less than 10%)	0 (herbicidal effect of not less than 0% and less than 10%, or phytotoxicity of 0% or more and less than 10%)	5 (herbicidal effect of not less than 90%, or phytotoxicity of 90% or more)	4 (herbicidal effect of not less than 70% and less than 90%, or phytotoxicity of 70% or more and less than 90%)	4 (herbicidal effect of not less than 70% and less than 90%, or phytotoxicity of 70% or more and less than 90%)	5 (herbicidal effect of not less than 90%, or phytotoxicity of 90% or more)	0 (herbicidal effect of not less than 0% and less than 10%, or phytotoxicity of 0% or more and less than 10%)	0 (herbicidal effect of not less than 0% and less than 10%, or phytotoxicity of 0% or more and less than 10%)	5 (herbicidal effect of not less than 90%, or phytotoxicity of 90% or more)	5 (herbicidal effect of not less than 90%, or phytotoxicity of 90% or more)	5 (herbicidal effect of not less than 90%, or phytotoxicity of 90% or more)	5 (herbicidal effect of not less than 90%, or phytotoxicity of 90% or more)	0 (herbicidal effect of not less than 0% and less than 10%, or phytotoxicity of 0% or more and less than 10%)
CON=C(Cn1cc(C)c(-c2ccccc2)n1)C(=O)NC1CCCC1 [Compound 23]	4 (herbicidal effect of not less than 70% and less than 90%, or phytotoxicity of 70% or more and less than 90%)	3 (herbicidal effect of not less than 50% and less than 70%, or phytotoxicity of 50% or more and less than 70%)	3 (herbicidal effect of not less than 50% and less than 70%, or phytotoxicity of 50% or more and less than 70%)	4 (herbicidal effect of not less than 70% and less than 90%, or phytotoxicity of 70% or more and less than 90%)	0 (herbicidal effect of not less than 0% and less than 10%, or phytotoxicity of 0% or more and less than 10%)	0 (herbicidal effect of not less than 0% and less than 10%, or phytotoxicity of 0% or more and less than 10%)	5 (herbicidal effect of not less than 90%, or phytotoxicity of 90% or more)	4 (herbicidal effect of not less than 70% and less than 90%, or phytotoxicity of 70% or more and less than 90%)	4 (herbicidal effect of not less than 70% and less than 90%, or phytotoxicity of 70% or more and less than 90%)	4 (herbicidal effect of not less than 70% and less than 90%, or phytotoxicity of 70% or more and less than 90%)	0 (herbicidal effect of not less than 0% and less than 10%, or phytotoxicity of 0% or more and less than 10%)	0 (herbicidal effect of not less than 0% and less than 10%, or phytotoxicity of 0% or more and less than 10%)	5 (herbicidal effect of not less than 90%, or phytotoxicity of 90% or more)	4 (herbicidal effect of not less than 70% and less than 90%, or phytotoxicity of 70% or more and less than 90%)	5 (herbicidal effect of not less than 90%, or phytotoxicity of 90% or more)	4 (herbicidal effect of not less than 70% and less than 90%, or phytotoxicity of 70% or more and less than 90%)	0 (herbicidal effect of not less than 0% and less than 10%, or phytotoxicity of 0% or more and less than 10%)
